Experimental data: patent US8163795B2, “Chroman derivatives, medicaments and use in therapy” (Marshall Edwards, Inc., priority 2004, dated 2012)
“And” between values parts separate entries of the source, which are not always exact repeats. Equal entries are not always repeated.

Key:
4405 melanoma cell line = test: Proliferation assay (MTT); assay type: cell-based; conditions: Table 15; melanoma 4405
Summary of the method: (§1)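 Cells were seeded at densities set by growth kinetics and cultured 5 days with or without test compound in medium with 10% FCS at 37° C, 5% CO2. MTT was added for 3-4 hrs at 37° C; IC50 was taken from semi-log plots of % control proliferation versus log dose.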

A2780 (Ovarian) = test: Proliferation assay (MTT); assay type: cell-based; conditions: Homo sapiens, Table 2.1
Summary of the method: as §1

IGR-3 (Melanoma) = test: Proliferation assay (MTT); assay type: cell-based
Summary of the method: as §1

LNCaP (Prostate) = test: Proliferation assay (MTT); assay type: cell-based; conditions: Homo sapiens, Table 2.1
Summary of the method: as §1

[1] = system: MCF-7 breast cancer cell line; test: Proliferation assay (MTT); assay type: cell-based; conditions: Homo sapiens, MCF7; Table 2.1; Breast MCF-7
Summary of the method: as §1

MM96L melanoma cell line = test: Proliferation assay (MTT); assay type: cell-based; conditions: Homo sapiens, Table 15
Summary of the method: as §1

NCI-H460 (Lung) = test: Proliferation assay (MTT); assay type: cell-based; conditions: Homo sapiens
Summary of the method: as §1

MM200 melanoma cell line [2] = test: Proliferation assay (MTT); assay type: cell-based; conditions: read-out: IC50
cancer cell lines = test: Proliferation assays, statements over several cancer cell lines; assay type: cell-based; conditions: SKOV-3, PC3, MCF-7, MDA-MB-468, HTB-138, HPAC, large cell lung cancer
Description: IC50 values were determined for each cell line. Cells were seeded in 96-well plates at an appropriate cell density as determined from growth kinetics analysis and cultured for 5 days in the absence and presence of the test compounds. Cell proliferation was assessed after the addition of 20 μl of 3-4,5 dimethylthiazol-2,5-diphenyl tetrazolium bromide (MTT, 2.5 mg/ml in PBS, Sigma) for 3-4 hrs at 37° C. according to manufacturer's instructions. IC50 values were calculated from semi-log plots of % of control proliferation on the y-axis against log dose on the x-axis.

[3] = system: HPAC pancreatic cancer tumours; test: Pilot in vivo efficacy study, HPAC tumour bearing mice; design: species or system Athymic nu/nu BALB/c mice
Excerpt: (§2) Subconfluent (80%) flasks of HPAC cells were trypsinised, washed in Hanks balanced salt solution (Sigma), resuspended in dubellco's minimal essential medium (Sigma) and an equal volume of Matrigel™ (Becton Dickson) at a density of 3.7×10^7 cells per ml. Athymic nu/nu BALB/c mice were s.c. inoculated with 3.7×10^6 HPAC cells bi-laterally midway along the dorsal surface. For the HMC (n=3 per dosage regimen) and control groups (n=2), treatment commenced five days post inoculation to allow tumour formation. HMC was formulated 20% HPBCD and delivered i.p. daily for 15 days. The control group received equivalent (weight:weight) i.p. doses of 20% HPBCD. Tumour measurements commenced on day 5 post inoculation (10×10 mm^2) and were measured in 2 dimensions, length (a) and width (b), using calipers. Tumor weight (W) was calculated by the formula W=ab2/2, where a, is the longer of the 2 measurements (Odwyer et al., 1994). Tumour proliferation curves were analyzed with respect to maximal tumour inhibition (treated/control, TIC). On sacrifice, liver, kidney, femur, stomach and colon tissue were fixed in buffered formalin, embedded in paraffin, sections cut and stained with H&E. Stained sections were then submitted to Rothwell consulting for histopathology analysis. Serum biochemistry was conducted on bloods taken from control, vehicle control and HMC treatment groups. Serum analysis was conducted by Veterinary Clinical pathology (U. Syd).
(§3) Histopathological examination of haematoxylin and eosin-stained sections cut from formalin-fixed tissues from two series of experimental mice was made. The liver, kidney, stomach and colon were examined for evidence of toxic damage, the spleen and bone marrow for evidence of myelosuppression and the tumour for degree of necrosis. A score of 0-5 was allocated to each tumour specimen for the degree of necrosis present, a 0 score representing, no necrosis and a score of 5, total necrosis. The sections were scored ‘blind’ on two separate occasions and the final score given in the results is the mean of these two scores.

[4] = Toxicity in HPAC tumour bearing mice (weight, histopathology, serum biochemistry); assay type: in vivo, Athymic nu/nu BALB/c mice
Excerpt: as §2, §3
Alakalines phosphatase (ALP), alanine transferase (ALT) and creatine (Cre) were assessed in HMC treated vs control animals. ALP and Cre levels were similar to control and fell within normal ranges (for rat) however, ALT levels in vehicle control and HMC treated groups were much lower than no treatment control levels.

MM200 melanoma cell line [5] = test: HMC combination with topotecan (synergy); assay type: cell-based; conditions: for IC50: Table 11, single agent; for Change Factor (Combined): 5-day combination
Description: IC50 values were determined for each cell line. Cells were seeded in 96-well plates at an appropriate cell density as determined from growth kinetics analysis and cultured for 5 days in the absence and presence of the test compounds. […] IC50 values were calculated from semi-log plots of % of control proliferation on the y-axis against log dose on the x-axis.
3-D model analysis of the cytotoxic interaction between drug A and drug B enables the representation of predicted inhibitory effect of two drugs in combination in 3 dimensions to reveal actual regions of synergy or antagonism. […] Theoretical Additivity was calculated from the cytotoxicities of drug A and drug B as monotherapies using the following formula which assumes the drugs are mutually exclusive inhibitors: […]
HMC synergy with topotecan was assessed either in combination over 5 days exposure or in sequence (HMC→topotecan) against the MM200 melanoma cell line.

[6] = individual HMC treated mice, 100 mg/kg, listed as HMC

For `COc1ccc(C2c3ccc(O)cc3OCC2c2ccc(O)cc2)cc1` (stereo not drawn) [Compound 1, 3-(4-hydroxyphenyl)-4-(4-methoxyphenyl)chroman-7-ol], the IC50 (4405 melanoma cell line) was 1.46 ± 0.18 µM, the IC50 (A2780 (Ovarian)) was 1.58 ± 0.59 µM and the IC50 (IGR-3 (Melanoma); Table 2.1, Melanoma IGR-3) was 0.53 ± 0.02 µM. For the same molecule, the IC50 (IGR-3 (Melanoma); Table 15, melanoma IgR3) was 0.51 ± 0.08 µM, the IC50 (LNCaP (Prostate)) was 4.52 µM and the IC50 [1] was 7.15 ± 7 µM. It also gave an IC50 (MM96L melanoma cell line) of 1.31 ± 0.38 µM, an IC50 (NCI-H460 (Lung); NCI-H460, Table 2.1, Lung NCI-H460) of 2.23 ± 0.15 µM and an IC50 (NCI-H460 (Lung); NCI-H460, Table 2.2, NSC Lung NCI-H460) of 2.8 ± 2 µM. For the same molecule, the IC50 (MM200 melanoma cell line [2]; Table 2.1, Melanoma MM200) was 0.7 ± 0.03 µM, the IC50 (MM200 melanoma cell line [2]; Table 2.2, Melanoma MM200) was 1.07 ± 0.5 µM and the IC50 (MM200 melanoma cell line [2]; Table 15, melanoma MM200, monotherapy) was 1.13 ± 0.52 µM. For the same molecule, the “activity compared to DHE IC50 values” (cancer cell lines) was 5-10 fold, the “final tumour burden (mean terminal tumour mass), % T/C” value ([3]; 100 mg/kg i.p. daily, 15 days) was 62% and the “proliferation of HPAC tumours over the treatment period vs vehicle control” value ([3]; 100 mg/kg i.p. daily, 15 days, in 20% HPBCD) was “significantly retarded the proliferation of HPAC tumours”. For the same molecule, the “Necrosis Score 0-5 (tumour)” value ([3]; individual treated mice, 0 no necrosis, 5 total necrosis, mean of two blind scores) was 2, the “toxicity as determined by weight loss” value ([4]; 100 mg/kg daily for 15 days) was “no signs of toxicity” and the “toxicity to major organs by histopathology” value ([4]; 100 mg/kg to mice) was “not toxic to major organs”. The “ALP (serum)” value [4, 6] was 111 U/L and 100 U/L and 74 U/L, the “ALT (serum)” value [4, 6] was 482 U/L and 494 U/L and 505 U/L and the “Cre (serum)” value [4, 6] was 8 uM (2×) and 17 uM. The “Urea (serum)” value [4, 6] was 8.11 mM and 7.79 mM and 7.27 mM, the IC50 (MM200 melanoma cell line [5]; 120 h, 5 days exposure, read-out: IC50, Combined (monotherapy)) was 0.702 µM and the “chemosensitisation of MM200 cells to topotecan (change in IC50)” value (MM200 melanoma cell line [5]; HMC 2 μM, HMC→topotecan sequence) was > 1000 fold. For the same molecule, the IC50 (MM200 melanoma cell line [5]; 24 hr exposure, read-out: IC50, 24 hr (monotherapy)) was 18 µM, the “Change Factor (HMC first)” value (MM200 melanoma cell line [5]; Topotecan block, HMC 1 uM 24 hr then topotecan 24 hr) was 50.656 and the “Change Factor (Combined)” value (MM200 melanoma cell line [5]; Topotecan block, with HMC 1 uM) was “?HMC effect”. The “Change Factor (Combined)” value (MM200 melanoma cell line [5]; Topotecan block, with HMC 2 uM) was “?HCM effect”, the “Change Factor (HMC first)” value (MM200 melanoma cell line [5]; upper block of Table 11, HMC 2 uM first, sequence) was >1000 and the “Change Factor (Combined)” value (MM200 melanoma cell line [5]; upper block of Table 11, HMC 2 uM) was “?HMC effect”.
